± gives the expanded uncertainty stated by the source.
Settings: 101.33 kPa, Liquid, Pycnometric method

SMILES | mass density (303.15 K) [kg/m3] | mass density (313.15 K) [kg/m3] | mass density (323.15 K) [kg/m3]
CC(=O)N(C)C.O=C(O)C(F)(F)F [N,N-dimethylacetamide trifluoroacetate] | 1227.9 ± 2.1 | 1218 ± 2.1 | 1208.2 ± 2.1
CN(C)C=O.O=C(O)C(F)(F)F [N,N-dimethylformamide trifluoroacetate] | 1246 ± 2.2 | 1232.9 ± 2.2 | 1219.9 ± 2.2
CN1CCCC1=O.O=C(O)C(F)(F)F [N-methylpyrrolidone trifluoroacetate] | 1232.3 ± 2.1 | 1226.1 ± 2.1 | 1219.9 ± 2.1

Source: the NIST ThermoML archive (doi:10.1016/j.jct.2012.09.023)
